For data set [1], the target named is GSK3β (Homo sapiens, UniProt P49841). Description: GSK3beta assay (SPA, biotinylated phosphorylated CREB peptide, ATP-P33). It counts as biochemical. The note with it: −log IC50 (M); given as ranges (>8; 7-8; <7); read-out: pIC50 (GSK3beta) (converted). An outline of the steps: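 Radiometric SPA at room temperature, pH 7.4 Tris/MgCl2/DTT/BSA/glycerol, with 5.7 ng/μl GSK3β, 5 μM biotinylated phospho-CREB peptide, 1 μM ATP plus 33P-ATP for 1 h. Stopped with streptavidin SPA beads, counted after overnight settling; % inhibition versus no-compound control, IC50 from dose-response curve.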
GSK3β, sequence (P49841 whole entry, species assumed): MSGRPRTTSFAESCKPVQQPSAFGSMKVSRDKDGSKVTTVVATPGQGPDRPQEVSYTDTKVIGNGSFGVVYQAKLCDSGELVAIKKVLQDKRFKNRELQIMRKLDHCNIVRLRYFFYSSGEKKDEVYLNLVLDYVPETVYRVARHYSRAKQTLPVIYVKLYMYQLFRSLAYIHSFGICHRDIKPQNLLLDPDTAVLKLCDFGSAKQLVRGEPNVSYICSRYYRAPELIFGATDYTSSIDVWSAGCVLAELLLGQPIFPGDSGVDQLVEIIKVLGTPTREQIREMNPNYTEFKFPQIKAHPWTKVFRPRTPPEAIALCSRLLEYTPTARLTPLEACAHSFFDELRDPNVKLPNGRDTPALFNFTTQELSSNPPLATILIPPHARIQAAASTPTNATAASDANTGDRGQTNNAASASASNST

Data set [2] deals with GSK3alpha (Homo sapiens, UniProt P49840). The experiment in a line: GSK3alpha assay (same as the GSK3beta assay, GSK3alpha 0.25 ng/μl). The conditions noted are these: −log IC50 (M); given as ranges (>8; 7-8; <7); read-out: pIC50 (GSK3alpha) (converted). Format: biochemical. An outline of the steps: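 GSK3α at 0.25 ng/μl phosphorylated 5 μM biotinylated phospho-CREB peptide with 1 μM ATP and 33P-ATP for 1 h at room temperature, in 25 mM Tris pH 7.4 with 10 mM MgCl2 and 1 mM DTT. Phosphorylated peptide was captured on streptavidin SPA beads and counted. IC50 was taken from dose-response curves.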
GSK3alpha, sequence (P49840 whole entry, species assumed): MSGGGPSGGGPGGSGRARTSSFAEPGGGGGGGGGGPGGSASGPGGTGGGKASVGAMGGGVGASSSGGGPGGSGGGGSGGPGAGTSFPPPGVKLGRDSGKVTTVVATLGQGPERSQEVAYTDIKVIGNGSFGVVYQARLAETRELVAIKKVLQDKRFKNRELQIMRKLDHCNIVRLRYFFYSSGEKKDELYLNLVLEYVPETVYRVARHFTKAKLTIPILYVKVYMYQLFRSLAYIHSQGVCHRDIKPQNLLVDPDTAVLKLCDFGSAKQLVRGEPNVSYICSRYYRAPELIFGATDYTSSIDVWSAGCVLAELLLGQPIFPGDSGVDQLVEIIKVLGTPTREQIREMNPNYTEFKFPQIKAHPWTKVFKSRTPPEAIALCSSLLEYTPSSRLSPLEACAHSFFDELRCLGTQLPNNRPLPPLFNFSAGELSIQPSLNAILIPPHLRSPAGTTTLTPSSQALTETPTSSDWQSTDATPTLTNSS

This is an account of results in patent US7560458B2, “Triazolopyrimidine derivatives as glycogen synthase kinase 3 inhibitors” (Janssen Pharmaceutica, N.V., priority 2003, dated 2009).

Molecules are shown by their SMILES. Counter-ions that a name gives are not always drawn.

In general, melting point refers to the temperature of the solid-liquid transition.

As to `Nc1cccc(Nc2ncc3nnn(-c4cccc(F)c4)c3n2)c1` (as salt: HCl) [Compound 12], the melting point is 224 °C.
Consider `NS(=O)(=O)c1cccc(Nc2ncc3nnn(-c4cccc(F)c4)c3n2)c1` [Compound 1], for which the melting point came to 177 °C. The IC50 in data set [1] is below 1e-08 M. Also, the IC50 in data set [2] was below 1e-08 M.
`CC(=O)c1cccc(Nc2ncc3nnn(-c4cccc(F)c4)c3n2)c1` [Compound 2] had a melting point of 220 to 224 °C. Besides, in data set [1], the IC50 was below 1e-08 M. In data set [2], the IC50 was below 1e-08 M.
In the case of `N#Cc1ccc(Nc2ncc3nnn(-c4cccc(F)c4)c3n2)cc1Cl` [Compound 3], the melting point is above 260 °C. Moreover, the IC50 in data set [1] is below 1e-08 M. In data set [2], the IC50 was below 1e-08 M.
`COc1cc(OC)cc(-n2nnc3cnc(Nc4cccc(C#N)c4)nc32)c1` [Compound 6]: the melting point is 228 to 232 °C. Besides, the IC50 in data set [1] is below 1e-08 M. The IC50 in data set [2] is below 1e-08 M.
In the case of `Fc1cccc(-n2nnc3cnc(Nc4cccc(Br)c4)nc32)c1` [Compound 7], the melting point lay in the range of 212 to 213 °C. In data set [1], the IC50 is below 1e-08 M. The IC50 in data set [2] is below 1e-08 M.
`N#Cc1cccc(Nc2ncc3nnn(-c4cccc(F)c4)c3n2)c1` [Compound 8] had a melting point of 228 to 230 °C. Also, in data set [1], the IC50 was below 1e-08 M. For the same compound, the IC50 in data set [2] was below 1e-08 M.
As for `CCOC(=O)/C=C/c1cccc(Nc2ncc3nnn(-c4cccc(F)c4)c3n2)c1` [Compound 9], the melting point lay within 214 to 218.1 °C. In data set [1], the IC50 is below 1e-08 M. Besides, the IC50 in data set [2] was below 1e-08 M.
`O=C(O)/C=C/c1cccc(Nc2ncc3nnn(-c4cccc(F)c4)c3n2)c1` [Compound 10] gave a melting point above 250 °C. The IC50 in data set [1] is below 1e-08 M. In addition, the IC50 in data set [2] is below 1e-08 M.
On to `CC(O)c1cccc(Nc2ncc3nnn(-c4cccc(F)c4)c3n2)c1` (centres unmarked) [Compound 27], for which the melting point lay in the range of 150 to 154 °C. For the same compound, the IC50 in data set [1] was below 1e-08 M. In addition, in data set [2], the IC50 is below 1e-08 M.
Compound `CC(C)Oc1cccc(Nc2ncc3nnn(-c4cccc(F)c4)c3n2)c1` [Compound 28] had a melting point of 142 to 146 °C. The IC50 in data set [1] is below 1e-08 M. The IC50 in data set [2] is below 1e-08 M.
On to `COc1cccc(-n2nnc3cnc(Nc4cccc(C#N)c4)nc32)c1` [Compound 55], for which the melting point lay in the range of 228 to 231 °C. Besides, the IC50 in data set [1] was below 1e-08 M. The IC50 in data set [2] was below 1e-08 M.
With `NS(=O)(=O)c1cccc(Nc2ncc3nnn(-c4cccc(-c5cnco5)c4)c3n2)c1` [Compound 57], the melting point was above 250 °C. Besides, the IC50 in data set [1] was below 1e-08 M. For the same compound, the IC50 in data set [2] is below 1e-08 M.
Compound `C=CCN(c1cccc(Nc2ncc3nnn(-c4cccc(CO)c4)c3n2)c1)S(C)(=O)=O` [Compound 69] returned a melting point of 158 to 162 °C. Besides, the IC50 in data set [1] was below 1e-08 M. The IC50 in data set [2] was 1e-08 M.
With `CC(=O)NCc1cccc(Nc2ncc3nnn(-c4cccc(C(=O)O)c4)c3n2)c1` [Compound 76], the melting point is above 260 °C.
With `COCc1cccc(-n2nnc3cnc(Nc4cccc([S+](C)[O-])c4)nc32)c1` (centres unmarked) [Compound 148], the melting point is 142 to 146 °C. Besides, the IC50 in data set [1] was below 1e-08 M. In data set [2], the IC50 is below 1e-08 M.
`C[S+]([O-])c1cccc(Nc2ncc3nnn(-c4cccc(F)c4)c3n2)c1` (centres unmarked) [Compound 152]: the melting point was in the range of 168 to 172 °C. Further, the IC50 in data set [1] is below 1e-08 M. Besides, the IC50 in data set [2] is below 1e-08 M.
Consider `COCCOCc1cccc(-n2nnc3cnc(Nc4ccc(F)cc4)nc32)c1` [Compound 287], for which the melting point was determined as 148 °C. For the same compound, the IC50 in data set [1] is below 1e-08 M. In data set [2], the IC50 is below 1e-08 M.
For `CN(C)CCCOc1ccc(Nc2ncc3nnn(-c4cccc(F)c4)c3n2)cc1` [Compound 297], the melting point was determined as 137 °C. Also, the IC50 in data set [1] was 1e-08 to 1e-07 M. For the same compound, the IC50 in data set [2] is 1e-08 to 1e-07 M.
As to `COc1cc(Nc2ncc3nnn(-c4cccc(F)c4)c3n2)ccc1C(=O)O` [Compound 298], the melting point is 232 °C. The IC50 in data set [1] is below 1e-08 M. Further, the IC50 in data set [2] is below 1e-08 M.
For `COCCOc1cccc(-n2nnc3cnc(Nc4ccc(CNCC(F)(F)F)cc4)nc32)c1` [Compound 312], the IC50 was 1e-08 to 1e-07 M in data set [1] and below 1e-08 M in data set [2].
Taken in the same sequence, the figures for `N#CCc1cccc(-n2nnc3cnc(Nc4ccc(CN)cc4)nc32)c1` [Compound 313] were below 1e-08 M and below 1e-08 M.
Regarding `COCCOCc1cccc(-n2nnc3cnc(Nc4ccc(CN)cc4)nc32)c1` [Compound 314], the IC50 in data set [1] and in data set [2] was 1e-08 to 1e-07 M each time.
For the compound `COCc1cccc(-n2nnc3cnc(Nc4ccc(CN)cc4)nc32)c1` [Compound 315], the IC50 in data set [1] and in data set [2] was below 1e-08 M throughout.
On to `NCCc1ccc(Nc2ncc3nnn(-c4cccc(CCO)c4)c3n2)cc1` [Compound 316], for which the IC50 in data set [1] and in data set [2] was below 1e-08 M each time.
As to `N#CCc1cccc(-n2nnc3cnc(Nc4ccc(CCN)cc4)nc32)c1` [Compound 317], the IC50 in data set [1] and in data set [2] was below 1e-08 M in each case.
Consider `COCCOCc1cccc(-n2nnc3cnc(Nc4ccc(CCN)cc4)nc32)c1` [Compound 318], for which the IC50 in data set [1] and in data set [2] was 1e-08 to 1e-07 M throughout.
Turning to `COCCOc1cccc(-n2nnc3cnc(Nc4ccc(CCN)cc4)nc32)c1` [Compound 319], the IC50 in data set [1] and in data set [2] was 1e-08 to 1e-07 M in each case.
As for `COCc1cccc(-n2nnc3cnc(Nc4ccc(CCN)cc4)nc32)c1` [Compound 320], the IC50 in data set [1] and in data set [2] was 1e-08 to 1e-07 M throughout.
With `NCCc1ccc(Nc2ncc3nnn(-c4cccc(F)c4)c3n2)cc1` [Compound 321], the IC50 in data set [1] and in data set [2] was 1e-08 to 1e-07 M throughout.
On to `CNC(=O)c1ccc(Nc2ncc3nnn(-c4cccc(OCCOC)c4)c3n2)cc1` [Compound 325], for which the IC50 in data set [1] was 1e-08 to 1e-07 M; in data set [2], below 1e-08 M.
Taken in the same sequence, the figures for `COCCOc1cccc(-n2nnc3cnc(Nc4ccc(C(=O)N(C)C)cc4)nc32)c1` [Compound 326] were 1e-08 to 1e-07 M and 1e-08 to 1e-07 M.
Taken in the same sequence, the figures for `CNC(=O)c1ccc(Nc2ncc3nnn(-c4cccc(COCCOC)c4)c3n2)cc1` [Compound 327] were below 1e-08 M and below 1e-08 M.
Regarding `COCCOCc1cccc(-n2nnc3cnc(Nc4ccc(C(=O)N(C)C)cc4)nc32)c1` [Compound 328], the IC50 in data set [1] and in data set [2] was below 1e-08 M in each case.
As to `CNC(=O)c1ccc(Nc2ncc3nnn(-c4cccc(CCO)c4)c3n2)cc1` [Compound 329], the IC50 in data set [1] and in data set [2] was below 1e-08 M throughout.
As for `CN(C)C(=O)c1ccc(Nc2ncc3nnn(-c4cccc(CCO)c4)c3n2)cc1` [Compound 330], the IC50 in data set [1] and in data set [2] was below 1e-08 M throughout.
Consider `CNC(=O)c1ccc(Nc2ncc3nnn(-c4cccc(CC#N)c4)c3n2)cc1` [Compound 331], for which the IC50 in data set [1] and in data set [2] was 1e-08 to 1e-07 M throughout.
With `CN(C)C(=O)c1ccc(Nc2ncc3nnn(-c4cccc(CC#N)c4)c3n2)cc1` [Compound 332], the IC50 in data set [1] and in data set [2] was below 1e-08 M throughout.
For `CNC(=O)c1ccc(Nc2ncc3nnn(-c4cccc(COC)c4)c3n2)cc1` [Compound 333], the IC50 in data set [1] and in data set [2] was below 1e-08 M throughout.
Turning to `COCc1cccc(-n2nnc3cnc(Nc4ccc(C(=O)N(C)C)cc4)nc32)c1` [Compound 334], the IC50 in data set [1] and in data set [2] was below 1e-08 M each time.
In the case of `COCCOc1cccc(-n2nnc3cnc(Nc4ccc(Cl)cc4)nc32)c1` [Compound 335], the IC50 in data set [1] and in data set [2] was 1e-08 to 1e-07 M in each case.
Regarding `COCCOCc1cccc(-n2nnc3cnc(Nc4ccc(Cl)cc4)nc32)c1` [Compound 336], the IC50 in data set [1] and in data set [2] was below 1e-08 M each time.
For `N#CCc1cccc(-n2nnc3cnc(Nc4ccc(Cl)cc4)nc32)c1` [Compound 337], the IC50 in data set [1] and in data set [2] was below 1e-08 M in each case.
`COCc1cccc(-n2nnc3cnc(Nc4ccc(Cl)cc4)nc32)c1` [Compound 338]: the IC50 in data set [1] and in data set [2] was below 1e-08 M each time.
